Experimental data reported in US7687478B2, “Disialoundecasaccharide chain asparagine/fatty acid amide and medical drug containing the same” (priority 2003, dated 2010).

System: influenza virus A/New Caledonia/20/99 (H1N1) (hemagglutinin)
Assay: Influenza virus (hemagglutinin) inhibiting activity with fowl blood cells
Assay type: biochemical
Details: A/New Caledonia/20/99 (H1N1) HA split fractions; 0.5% fowl hematid; 4° C., 60 minutes

| Substance | amount of derivative at which influenza virus (hemagglutinin) inhibiting activity was exhibited |
| --- | --- |
| Asparagine-linked Disialoundecaoligosaccharide-behenic Acid Amide [derivative 6] | 37.5 µmol |
| Asparagine-linked Disialoundecaoligosaccharide-stearic Acid Amide [derivative 5] | 47.5 µmol |
| Asparagine-linked Disialoundecaoligosaccharide-myristic Acid Amide [derivative 4] | 95.0 µmol |
| Asparagine-linked Disialoundecaoligosaccharide-decanoic Acid Amide [derivative 3] | 190.0 µmol |
